From ChEMBL document CHEMBL5375981, “Enhanced Tumor Targeting and Penetration of Proteolysis-Targeting Chimeras through iRGD Peptide Conjugation: A Strategy for Precise Protein Degradation in Breast Cancer” (J Med Chem, 2023)
Calls of active or inactive are those of the source. No cut-off for these calls is given here.

How the values were obtained:
[1] = biological target: Bromodomain-containing protein 4 (Homo sapiens) (UniProt O60885); assay: Induction of BRD4 degradation in human L02 cells lacking integrin alphaVbeta3 expression at 300 nM incubated for 12 hrs by immunofluorescence staining based confocal microscopic analysis; format: cell-based
[2] = test system: MDA-MB-231; assay: Antiproliferative activity against human MDA-MB-231 cells harboring high integrin alphaVbeta3 expression assessed as inhibition of cell growth incubated for 72 hrs by CCK-8 assay; format: functional, cell-based; conditions: MDA-MB-231, 72 h
[3] = organism: Homo sapiens; assay: Antitumor activity against patient-derived Breast cancer organoid assessed as increase in number of apoptotic cells by measuring reduction in green fluorescence at 0.5 to 1 uM incubated for approximately 3 to 5 days by acridine orange/ethidium bromide double staining ssay; format: functional, cell-based; conditions: dose 0.5-1 µM, time 3-5 day
[4] = test system: MDA-MB-231; assay: Antitumor activity against human MDA-MB-231 cells xenografted in BALB/C nude mouse assessed as appearance of collapsed extravascular tumor tissue at 5 uM, iv administered every other day and measured after 21 days by H and E staining based assay; format: functional, organism-based; conditions: time 21.0 day
[5] = Toxicity in BALB/C mouse xenografted with human MDA-MB-231 cells assessed as effect on spleen weight at 5 to 8 uM, iv administered every other day for 21 days; format: organism-based; conditions: in vivo, 504 h, dose 5-8 µM, time 21 day
[6] = biological target: Bromodomain-containing protein 4 (Homo sapiens) (UniProt O60885); assay: Induction of BRD4 degradation in human MCF7 cells harboring low integrin alphaVbeta3 expression at 300 nM incubated for 12 hrs by immunofluorescence staining based confocal microscopic analysis; format: cell-based
[7] = test system: MCF7; assay: Antiproliferative activity against human MCF7 cells harboring low integrin alphaVbeta3 expression assessed as inhibition of cell growth incubated for 72 hrs by CCK-8 assay; format: functional, cell-based; conditions: MCF7, 72 h
[8] = Toxicity in BALB/C mouse xenografted with human MDA-MB-231 cells assessed as liver damage at 5 to 8 uM, iv administered every other day for 21 days and measured 37 days post treatment by H and E staining based assay; format: organism-based; conditions: in vivo, 1392 h, dose 5-8 µM, time 58 day
[9] = test system: MDA-MB-231; assay: Antimigratory activity against human MDA-MB-231 cells harboring high integrin alphaVbeta3 expression assessed as inhibition of cell migration incubated for 48 hrs by crystal violet staining based transwell assay; format: functional; conditions: dose 200-300 nM
[10] = Toxicity in BALB/C mouse xenografted with human MDA-MB-231 cells assessed as kidney damage at 5 to 8 uM, iv administered every other day for 21 days and measured 37 days post treatment by H and E staining based assay; format: organism-based; conditions: in vivo, 1392 h, dose 5-8 µM, time 58 day
[11] = Stability of compound in PBS containing 5% serum at 50 uM measured after 72 hrs by LC-MS analysis; format: physicochemical, cell-free; conditions: read-out: Stability
[12] = organism: Homo sapiens; assay: Antitumor activity against patient-derived Breast cancer organoid assessed as reduction in number of proliferating cells by measuring reduction in red fluorescence at 0.5 uM incubated for approximately 3 days by Edu incorporation assay; format: functional, tissue-based; conditions: time 3.0 day
[13] = biological target: Bromodomain-containing protein 4 (Homo sapiens) (UniProt O60885); assay: Induction of BRD4 degradation in human MDA-MB-231 cells harboring high integrin alphaVbeta3 expression assessed as reduction in BRD4 levels at 500 nM incubated for 12 hrs by immunofluorescence staining based confocal microscopic analysis; format: cell-based
[14] = Drug release in PBS assessed as increase in (2S)-1-((R)-2-(tert-butyl)-17-((S)-4-(4-chlorophenyl)-2,3,9-trimethyl-6H-thieno[3,2-f][1,2,4]triazolo[4,3-a][1,4]diazepin-6-yl)-4,16-dioxo-6,9,12-trioxa-3,15-diazaheptadecanoyl)-4-hydroxy-N-((S)-1-(4-(4-methylthiazol-5-yl)phenyl)ethyl)pyrrolidine-2-carboxamide concentration at 50 uM in presence of GSH by LC-MS analysis; format: ADME; conditions: buffer, TDE = time-dependent effect
[15] = biological target: Bromodomain-containing protein 4 (Homo sapiens) (UniProt O60885); assay: Induction of BRD4 degradation in human MDA-MB-231 cells harboring high integrin alphaVbeta3 expression assessed as reduction in BRD4 levels at 500 nM pretreated with NRP-1 inhibitor EG00229 for 2 hrs followed by compound addition and measured after 12 hrs by immunofluorescence staining based confocal microscopic analysis; format: cell-based
[16] = test system: MDA-MB-231; assay: Antitumor activity against human MDA-MB-231 cells xenografted in BALB/C nude mouse assessed as induction of apoptosis in tumor cells at 5 to 8 uM, iv administered every other day and measured after 21 days by immunohistochemistry; format: functional, organism-based; conditions: dose 5-8 µM, time 21.0 day
[17] = biological target: Bromodomain-containing protein 4 (Homo sapiens) (UniProt O60885); assay: Induction of BRD4 degradation in human MDA-MB-231 cells harboring high integrin alphaVbeta3 expression at 0.1 to 1 uM incubated for 24 hrs by Western blot analysis; format: cell-based; conditions: dose 0.1-1 µM
[18] = test system: L02; assay: Antiproliferative activity against human L02 cells harboring minimal integrin alphaVbeta3 expression assessed as inhibition of cell growth incubated for 72 hrs by CCK-8 assay; format: functional, cell-based; conditions: L02, 72 h
[19] = Toxicity in BALB/C mouse xenografted with human MDA-MB-231 cells assessed as effect on kidney weight at 5 to 8 uM, iv administered every other day for 21 days; format: organism-based; conditions: in vivo, 504 h, dose 5-8 µM, time 21 day
[20] = Toxicity in BALB/C mouse xenografted with human MDA-MB-231 cells assessed as spleen damage at 5 to 8 uM, iv administered every other day for 21 days and measured 37 days post treatment by H and E staining based assay; format: organism-based; conditions: in vivo, 1392 h, dose 5-8 µM, time 58 day
[21] = biological target: Bromodomain-containing protein 4 (Homo sapiens) (UniProt O60885); assay: Induction of BRD4 degradation in human MDA-MB-231 cells harboring high integrin alphaVbeta3 expression at 1 uM incubated for 12 hrs by immunofluorescence staining based confocal microscopic analysis; format: cell-based
[22] = test system: MDA-MB-231; assay: Antitumor activity against human MDA-MB-231 cells xenografted in BALB/C nude mouse assessed as disruption of tumor blood vessel wall at 5 uM, iv administered every other day and measured after 21 days by H and E staining based assay; format: functional, organism-based; conditions: time 21.0 day
[23] = Toxicity in BALB/C mouse xenografted with human MDA-MB-231 cells assessed as lung damage at 5 to 8 uM, iv administered every other day for 21 days and measured 37 days post treatment by H and E staining based assay; format: organism-based; conditions: in vivo, 1392 h, dose 5-8 µM, time 58 day
[24] = Toxicity in BALB/C mouse xenografted with human MDA-MB-231 cells assessed as weight loss at 5 to 8 uM, iv administered for 21 days and measured every 3 days; format: organism-based; conditions: in vivo, 504 h, dose 5-8 µM, time 21 day
[25] = organism: Homo sapiens; assay: Antitumor activity against patient-derived Breast cancer organoid assessed as increase in number of apoptotic cells by measuring increase in red fluorescence at 0.5 to 1 uM incubated for approximately 3 to 5 days by acridine orange/ethidium bromide double staining ssay; format: functional, cell-based; conditions: dose 0.5-1 µM, time 3-5 day
[26] = test system: MDA-MB-231; assay: Antitumor activity against human MDA-MB-231 cells xenografted in BALB/C nude mouse assessed as inhibition of cell proliferation by measuring reduction in number of Ki67-stained cells at 5 to 8 uM, iv administered every other day and measured after 21 days by immunohistochemistry; format: functional, organism-based; conditions: dose 5-8 µM, time 21.0 day
[27] = test system: Mus musculus; assay: In vivo induction of BRD4 degradation in BALB/C mouse xenografted with human MDA-MB-231 cells assessed as reduction in BRD4 level in tumor at 5 to 8 uM, iv administered every other day and measured after 21 days by immunohistochemistry analysis; format: functional, organism-based; conditions: dose 5-8 µM, time 21.0 day
[28] = test system: MDA-MB-231; assay: Antitumor activity against human MDA-MB-231 cells xenografted in BALB/C nude mouse assessed as tumor growth inhibition at 8 uM, iv administered every other day and measured after 21 days by vernier caliper method relative to control; format: functional; conditions: MDA-MB-231, 504 h, time 21 day, read-out: TGI

Cc1ncsc1-c1ccc([C@H](C)NC(=O)[C@@H]2C[C@@H](OC(=O)OCCSSCCOC(=O)CCC(=O)NCCCC[C@@H]3NC(=O)[C@H](CC(=O)O)NC(=O)CNC(=O)[C@H](CCCNC(=N)N)NC(=O)[C@@H](N)CSSC[C@@H](C(=O)O)NC(=O)[C@H](CC(=O)O)NC(=O)[C@@H]4CCCN4C(=O)CNC3=O)CN2C(=O)[C@@H](NC(=O)COCCOCCOCCNC(=O)C[C@@H]2N=C(c3ccc(Cl)cc3)c3c(sc(C)c3C)-n3c(C)nnc32)C(C)(C)C)cc1
Activity [1]: inactive
IC50 [2]: 0.088 µM
Activity [3]: Active
Activity [4]: Active
Activity [5]: Non-Toxic
Activity [6]: inactive
IC50 [7]: 0.26 µM
Activity [8]: Non-Toxic
Activity [9]: Dose-Dependent Effect
Activity [10]: Non-Toxic
remaining at 72 h, 50 µM [11]: 89.9%
Activity [12]: Active
Activity [13]: Active
Drug metabolism [14]: Tde
Activity [15]: inactive
Activity [16]: Active
Activity [17]: Active
IC50 [18]: 1.5 µM
Activity [19]: Non-Toxic
Activity [20]: Non-Toxic
Activity [21]: Active
Activity [22]: Active
Activity [23]: Non-Toxic
Activity [24]: Non-Toxic
Activity [25]: Active
Activity [26]: Active
Activity [27]: Active
inhibition in vivo at 8 µM [28]: 81.5%
